Measurements: US11851449B2, “Heterocyclic amide compounds having an RORvt inhibitory action” (TAKEDA PHARMACEUTICAL COMPANY LIMITED, priority 2013, dated 2023)

What was measured:
RORγt [1] = target: T1, RORγt (Homo sapiens, UniProt P51449); experiment: Cofactor recruitment test (Alpha Screen, biotinylated SRC-1 peptide); format: biochemical; details: read-out: signal value inhibitory rate (%) at test compound 1 μM
T1 sequence (P51449 1-497 isoform P51449-2): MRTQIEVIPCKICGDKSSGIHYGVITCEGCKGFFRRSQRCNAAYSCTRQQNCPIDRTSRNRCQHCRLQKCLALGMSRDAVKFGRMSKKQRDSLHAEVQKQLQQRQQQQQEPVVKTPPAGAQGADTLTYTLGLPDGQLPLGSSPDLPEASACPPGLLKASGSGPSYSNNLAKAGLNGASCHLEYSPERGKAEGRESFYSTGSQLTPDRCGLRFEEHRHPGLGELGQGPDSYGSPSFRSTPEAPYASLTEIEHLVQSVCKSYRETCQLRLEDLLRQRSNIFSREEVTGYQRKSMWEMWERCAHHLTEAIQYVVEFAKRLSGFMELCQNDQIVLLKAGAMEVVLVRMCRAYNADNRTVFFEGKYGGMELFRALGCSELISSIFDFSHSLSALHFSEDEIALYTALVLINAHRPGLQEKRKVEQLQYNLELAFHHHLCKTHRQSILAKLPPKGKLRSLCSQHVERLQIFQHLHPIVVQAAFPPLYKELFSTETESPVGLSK
Method: Cofactor Recruitment Test
Cofactor recruitment test was performed by Alpha Screen (Histidine Detection Kit, PerkinElmer) method. First, a test compound was diluted with an assay buffer (50 mM Tris-HCl (pH 7.5), 50 mM KCl, 1 mM DTT, 0.1% BSA) and added to a 384 well plate by 5 μL. […] The mixture was stood in a dark place for 1 hr, and the signal value was measured by Envision (PerkinElmer).

RORγt [2] = target: T1, RORγt; experiment: Jurkat reporter test (human IL-17 ROR response element luciferase reporter); format: cell-based; details: Jurkat, read-out: luminescence level inhibitory rate (%) at test compound 3 μM
Outline: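 Luminescence (Bright-Glo, 10 min, RT) was measured after overnight compound treatment of electroporated Jurkat cells (1350 V, 10 ms interval, 3 pulses). The reaction medium was RPMI with 10% lipid-reduced FCS, 10 mM HEPES (pH 7.5) and 5 μM lovastatin.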

RORγt [3] = target: T1, RORγt; experiment: RORγt binding test (TR-FRET, fluorescent-labeled cholesterol); details: read-out: binding inhibitory rate (%) of fluorescent-labeled cholesterol to RORγt at test compound 1 μM
Outline: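 His-tagged RORγt and BODIPY-cholesterol were incubated with compound for 20 min at room temperature in Tris-HCl pH 7.5, 100 mM NaCl, 1 mM DTT and 0.1% BSA. Terbium anti-His antibody was then added for a further 20 min.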

SMILES | inhibition at 1 µM (RORγt [1]) [%] | inhibition at 3 µM (RORγt [2]) [%] | inhibition at 1 µM (RORγt [3]) [%]
COCc1ccc([C@@H](NC(=O)Cn2ccc(=O)[nH]c2=O)C(=O)Nc2ccc([Si](C)(C)C)c(F)c2)cc1 [Example 59, (2R)-2-(((2,4-dioxo-3,4-dihydropyrimidin-1(2H)-yl)acetyl)amino)-N-(3-fluoro-4-(trimethylsilyl)phenyl)-2-(4-(methoxymethyl)phenyl)acetamide] | 96 | 99.2 | 102
COCc1ccc([C@@H](NC(=O)Cn2c(=O)cc[nH]c2=O)C(=O)Nc2ccc([Si](C)(C)C)c(F)c2)cc1 [Example 60, (2R)-2-(((2,6-dioxo-3,6-dihydropyrimidin-1 (2H)-yl)acetyl)amino)-N-(3-fluoro-4-(trimethylsilyl)phenyl)-2-(4-(methoxymethyl)phenyl)acetamide] | 96.6 | 99.7 | 102
COCc1ccc([C@@H](NC(=O)Cn2nc(C)ccc2=O)C(=O)Nc2cc(F)c([Si](C)(C)C)c(F)c2)cc1 [Example 61, (2R)—N-(3,5-difluoro-4-(trimethylsilyl)phenyl)-2-(4-(methoxymethyl)phenyl)-2-(((3-methyl-6-oxopyridazin-1(6H)-yl)acetyl)amino)acetamide] | 97 | 100 | 102
COCc1ccc([C@@H](NC(=O)CN2C(=O)CNC2=O)C(=O)Nc2ccc([Si](C)(C)C)c(F)c2)cc1 [Example 62, (2R)-2-(((2,5-dioxoimidazolidin-1-yl)acetyl)amino)-N-(3-fluoro-4-(trimethylsilyl)phenyl)-2-(4-(methoxymethyl)phenyl)acetamide] | 96.3 | 97.8 | 99.9
COCc1ccc([C@@H](NC(=O)Cn2ccc(=O)cn2)C(=O)Nc2ccc([Si](C)(C)C)c(F)c2)cc1 [Example 63, (2R)—N-(3-fluoro-4-(trimethylsilyl)phenyl)-2-(4-(methoxymethyl)phenyl)-2-(((4-oxopyridazin-1(4H)-yl)acetyl)amino)acetamide] | 95.1 | 99.7 | 103
COc1ccc([C@@H](NC(=O)N2CC[C@H](O)C2)C(=O)Nc2ccc([Si](C)(C)C)c(F)c2)cc1 [Example 64, (3S)—N-((1R)-2-((3-fluoro-4-(trimethylsilyl)phenyl)amino)-1-(4-methoxyphenyl)-2-oxoethyl)-3-hydroxypyrrolidine-1-carboxamide] | 90.1 | 98.7 | 102
COCc1ccc([C@@H](NC(=O)N2CC[C@H](O)C2)C(=O)Nc2ccc([Si](C)(C)C)c(F)c2)cc1 [Example 65, (3S)—N-((1R)-2-((3-fluoro-4-(trimethylsilyl)phenyl)amino)-1-(4-(methoxymethyl)phenyl)-2-oxoethyl)-3-hydroxypyrrolidine-1-carboxamide] | 94.3 | 98.5 | 102
COCc1ccc([C@@H](NC(=O)N2CC[C@@H](O)C2)C(=O)Nc2ccc([Si](C)(C)C)c(F)c2)cc1 [Example 66, (3R)—N-((1R)-2-((3-fluoro-4-(trimethylsilyl)phenyl)amino)-1-(4-(methoxymethyl)phenyl)-2-oxoethyl)-3-hydroxypyrrolidine-1-carboxamide] | 94.6 | 98.5 | 103
COCc1ccc([C@@H](NC(=O)Cc2nnc(C)o2)C(=O)Nc2ccc([Si](C)(C)C)c(F)c2)cc1 [Example 67, (2R)—N-(3-fluoro-4-(trimethylsilyl)phenyl)-2-(4-(methoxymethyl)phenyl)-2-(((5-methyl-1,3,4-oxadiazol-2-yl)acetyl)amino)acetamide] | 96 | 98.5 | 103
COCc1ccc([C@@H](NC(=O)[C@H]2CNC(=O)C2)C(=O)Nc2cc(F)c([Si](C)(C)C)c(F)c2)cc1 [Example 68, (3R)—N-((1R)-2-((3,5-difluoro-4-(trimethylsilyl)phenyl)amino)-1-(4-(methoxymethyl)phenyl)-2-oxoethyl)-5-oxopyrrolidine-3-carboxamide] | 96.2 | 98.7 | 101
COCc1ccc([C@@H](NC(=O)N2CC(O)C2)C(=O)Nc2ccc([Si](C)(C)C)c(F)c2)cc1 [Example 69, N-((1R)-2-((3-fluoro-4-(trimethylsilyl)phenyl)amino)-1-(4-(methoxymethyl)phenyl)-2-oxoethyl)-3-hydroxyazetidine-1-carboxamide] | 96.8 | 98.4 | 103
COc1ccc([C@@H](NC(=O)[C@H]2CNC(=O)C2)C(=O)Nc2ccc([Si](C)(C)C)c(F)c2)cc1 [Example 70, (3R)—N-((1R)-2-((3-fluoro-4-(trimethylsilyl)phenyl)amino)-1-(4-methoxyphenyl)-2-oxoethyl)-5-oxopyrrolidine-3-carboxamide] | 82.8 | 96.5 | 101
COc1ccc([C@@H](NC(=O)N2CC[C@@H](O)C2)C(=O)Nc2ccc([Si](C)(C)C)c(F)c2)cc1 [Example 71, (3R)—N-((1R)-2-((3-fluoro-4-(trimethylsilyl)phenyl)amino)-1-(4-methoxyphenyl)-2-oxoethyl)-3-hydroxypyrrolidine-1-carboxamide] | 89.9 | 99 | 101
COCc1ccc([C@@H](NC(=O)CCO)C(=O)Nc2cc(F)c([Si](C)(C)C)c(F)c2)cc1 [Example 72, N-((1R)-2-((3,5-difluoro-4-(trimethylsilyl)phenyl)amino)-1-(4-(methoxymethyl)phenyl)-2-oxoethyl)-3-hydroxypropanamide] | 96.7 | 99.2 | 102
COCc1ccc([C@@H](NC(=O)CCC#N)C(=O)Nc2cc(F)c([Si](C)(C)C)c(F)c2)cc1 [Example 73, 3-cyano-N-((1R)-2-((3,5-difluoro-4-(trimethylsilyl)phenyl)amino)-1-(4-(methoxymethyl)phenyl)-2-oxoethyl)propanamide] | 96.7 | 97.9 | 103
COCc1ccc([C@@H](NC(=O)Cc2nnc(C)o2)C(=O)Nc2cc(F)c([Si](C)(C)C)c(F)c2)cc1 [Example 74, (2R)—N-(3,5-difluoro-4-(trimethylsilyl)phenyl)-2-(4-(methoxymethyl)phenyl)-2-(((5-methyl-1,3,4-oxadiazol-2-yl)acetyl)amino)acetamide] | 97.6 | 99.4 | 101
COCc1ccc([C@@H](NC(=O)Cc2cc(O)no2)C(=O)Nc2ccc([Si](C)(C)C)c(F)c2)cc1 [Example 75, (2R)—N-(3-fluoro-4-(trimethylsilyl)phenyl)-2-(((3-hydroxy-1,2-oxazol-5-yl)acetyl)amino)-2-(4-(methoxymethyl)phenyl)acetamide] | 95.8 | 99.7 | 102
COCc1ccc([C@@H](NC(=O)Cc2cc(O)no2)C(=O)Nc2cc(F)c([Si](C)(C)C)c(F)c2)cc1 [Example 76, (2R)—N-(3,5-difluoro-4-(trimethylsilyl)phenyl)-2-(((3-hydroxy-1,2-oxazol-5-yl)acetyl)amino)-2-(4-(methoxymethyl)phenyl)acetamide] | 98.5 | 99.3 | 103
COCc1ccc([C@H](C(=O)Nc2cc(F)c([Si](C)(C)C)c(F)c2)N(C)C(=O)c2cc(O)no2)cc1 [Example 77, N-((1R)-2-((3,5-difluoro-4-(trimethylsilyl)phenyl)amino)-1-(4-(methoxymethyl)phenyl)-2-oxoethyl)-3-hydroxy-N-methyl-1,2-oxazole-5-carboxamide] | 97.3 | 99.7 | 103
COCc1ccc([C@@H](NC(=O)Cn2ccc(=O)cc2)C(=O)Nc2ccc([Si](C)(C)C)c(F)c2)cc1 [Example 78, (2R)—N-(3-fluoro-4-(trimethylsilyl)phenyl)-2-(4-(methoxymethyl)phenyl)-2-(((4-oxopyridin-1(4H)-yl)acetyl)amino)acetamide] | 93.2 | 96 | 102
